Reference: ChEMBL document CHEMBL1201862, “PubChem BioAssay data set” (2004)
Several values for one entry are separate records, joined by “and”; a condition that tells them apart may be missing. Equal entries are not always repeated. Activity calls are given as the source filed them.

What was measured:
[1] = M. tuberculosis growth inhibition, HTS (AID 449762); format: functional
cells = format: functional
[2] = biological target: T1, Corticotropin-releasing factor receptor 2/Corticotropin-releasing factor-binding protein (Homo sapiens, UniProt P24387+Q13324); experiment: activators of CRF receptor 2 with binding protein – uHTS hits, confirmation (AID 602473); format: functional; settings: read-out: EC50_Mean
T1 sequence (Q13324 whole entry): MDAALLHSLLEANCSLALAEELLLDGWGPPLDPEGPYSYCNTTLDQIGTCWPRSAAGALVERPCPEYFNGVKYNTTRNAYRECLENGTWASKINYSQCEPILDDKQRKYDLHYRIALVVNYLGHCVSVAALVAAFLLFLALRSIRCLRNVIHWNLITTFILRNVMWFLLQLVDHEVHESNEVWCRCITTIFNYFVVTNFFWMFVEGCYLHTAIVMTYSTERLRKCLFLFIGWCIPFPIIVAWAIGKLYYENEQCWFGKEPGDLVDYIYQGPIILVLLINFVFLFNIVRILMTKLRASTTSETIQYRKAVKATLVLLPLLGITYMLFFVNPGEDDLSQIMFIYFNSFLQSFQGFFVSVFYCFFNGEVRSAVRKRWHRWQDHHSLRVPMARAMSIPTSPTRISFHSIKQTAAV
T1 sequence (P24387 whole entry): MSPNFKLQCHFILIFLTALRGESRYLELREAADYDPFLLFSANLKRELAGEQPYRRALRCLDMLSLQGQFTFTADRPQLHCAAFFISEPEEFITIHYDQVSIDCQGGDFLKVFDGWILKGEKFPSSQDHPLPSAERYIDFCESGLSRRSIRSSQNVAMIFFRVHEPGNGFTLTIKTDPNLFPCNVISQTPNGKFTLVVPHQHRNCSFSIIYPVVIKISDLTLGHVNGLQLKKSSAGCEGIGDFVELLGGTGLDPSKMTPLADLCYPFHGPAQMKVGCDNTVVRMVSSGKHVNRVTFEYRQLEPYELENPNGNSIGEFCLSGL

[3] = biological target: Voltage-gated inwardly rectifying potassium channel KCNH2 (Homo sapiens, UniProt Q12809); experiment: hERG protection from proarrhythmic block, potency, dose response, cell-based, thallium flux (AID 2121); format: ADME
[4] = HIV Env cell-cell fusion inhibitors, dose response, HIV entry, plate reader, dry powder (AID 687023); format: functional, cell-based
[5] = ZM109 Env clade C HIV-1 fusion inhibitors, dose response, HeLa effector, CEM target cells, luciferase, cherry-pick (AID 652058); format: functional, cell-based
[6] = inhibitors of HIV Env-driven cell fusion, dose response, cherry-pick (AID 652057); format: functional, cell-based
[7] = cytotoxicity dependent on PAX8, dose response, cell-based, plate reader, dry powder (AID 743049); format: functional
[8] = IOSE-T80 ovarian epithelial cell cytotoxicity, dose response, cytotoxicity control for PAX8 inhibitor project, plate reader, dry powder samples (AID 743045); format: functional, cell-based
[9] = cytotoxicity in OV-90 ovarian cancer cells, dose response, PAX8 inhibitor project, cell-based, plate reader, dry powder, SA8 (AID 743149); format: functional
Paired box protein Pax-8 = Paired box protein Pax-8 (Homo sapiens, UniProt Q06710); experiment: inhibitors of PAX8-driven TPO luciferase reporter, dose response, RMG-I cells, cherry-pick (AID 687027); format: functional, cell-based;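 also: luciferase reporter driven by Pax8 target thyroperoxidase promoter measured by SteadyGlo luminescence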
[10] = cytotoxicity in OVCAR8 ovarian cancer cells, dose response, PAX8 project, cell-based, plate reader, dry powder samples (AID 743197); format: functional; settings: OVCAR-8
[11] = cytotoxicity in COV434 cells, dose response, cytotoxicity control for PAX8 inhibitor project, cell-based, plate reader, dry powder, SA7 (AID 743145); format: functional
[12] = IGROV1 ovarian cancer cell cytotoxicity, dose response, PAX8 inhibitor project, plate reader, dry powder samples (AID 743043); format: functional, cell-based; settings: IGROV-1
[13] = NIH:OVCAR-3 ovarian cancer cell cytotoxicity, dose response, PAX8 inhibitor project, plate reader, dry powder samples (AID 743044); format: functional, cell-based
[14] = PAX5 activity inhibitors, dose response, selectivity assay for PAX8 inhibitor project, cell-based, plate reader, dry powder samples (AID 743047); format: functional;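 also: HEK293 cells carrying a Pax5 driven CD19 promoter luciferase reporter; potency of inhibitors that lower reporter luminescence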
[15] = PAX2 cell-based inhibition, dose response, selectivity assay for PAX8 inhibitor project, plate reader, dry powder samples (AID 743048); format: functional;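 also: HEK293 cells carrying a WT1 promoter luciferase reporter driven by expressed Pax2; potency is for inhibition of Pax2 driven reporter signal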
[16] = cytotoxicity in HepG2 cells, dose response, cytotoxicity control, cell-based, plate reader, dry powder (AID 651947); format: functional
[17] = Concentration-dependent survival of SW480 colon cancer line, luminescence detection with CellTiter-Glo, half-maximal inhibitory concentration (AID 1117338); format: functional
[18] = SNU-C1 cell viability reduction, dose response, CellTiter-Glo luminescence (AID 1117323); format: functional, cell-based
[19] = HCT116 cell viability decrease, GSK3B pretreatment – CellTiter-Glo, IC50, dose response (AID 1117339); format: functional; settings: HCT-116
[20] = cytotoxicity toward Colo320 cells – cell-based, CellTiter-Glo luminescence, IC50, dose response (AID 1117334); format: functional; settings: COLO 320
[21] = cytotoxicity toward HCT116 cells – cell-based, CellTiter-Glo luminescence, IC50, dose response (AID 1117332); format: functional; settings: HCT-116
[22] = cytotoxicity toward HT-29 cells – cell-based, CellTiter-Glo luminescence, IC50, dose response (AID 1117330); format: functional
[23] = RKO cell viability reduction, dose response, CellTiter-Glo luminescence (AID 1117322); format: functional
[24] = CellTiter-Glo luminescent dose response of DLD-1 viability loss (AID 1117352); format: functional
[25] = growth inhibition of intracellular T. cruzi, dose response, cell-based, plate reader, dry powder samples (AID 651845); format: functional
[26] = T. cruzi growth inhibition in host cells, dose response, cell-based, plate reader, dry powder, set 2 (AID 652275); format: functional
[27] = T. cruzi intracellular amastigote growth inhibition, dose response, imaging, CA-I/72 strain, bovine embryo skeletal muscle, dry powder (AID 651885); format: functional, cell-based
HEK293 [28] = experiment: optical interference in Abeta FP readout, dose response, artefact control for IDE activator project, biochemical, fluorescence polarization (AID 588442); format: functional, cell-based; settings: Homo sapiens
[29] = biological target: Ras and Rab interactor 1/Tyrosine-protein kinase ABL1 (Homo sapiens, UniProt P00519+Q13671); format: functional;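 also: biochemical TR-FRET dose-response test measuring inhibition of binding between Rin1 and Abl proteins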
HEK293 [30] = experiment: HEK cell cytotoxicity by LDH release, dose response, cytotoxicity control for IDE activator project, fluorescence, HEK cells (AID 588440); format: functional, cell-based; settings: Homo sapiens;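 also: cytotoxicity by LDH release measuring loss of membrane integrity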
Insulin-degrading enzyme [31] = biological target: T2, Insulin-degrading enzyme (Homo sapiens, UniProt P14735); experiment: activators of endogenous IDE in HEK cells, dose response, cell-based, fluorescence polarization (AID 588439); format: functional
T2 sequence (P14735 whole entry): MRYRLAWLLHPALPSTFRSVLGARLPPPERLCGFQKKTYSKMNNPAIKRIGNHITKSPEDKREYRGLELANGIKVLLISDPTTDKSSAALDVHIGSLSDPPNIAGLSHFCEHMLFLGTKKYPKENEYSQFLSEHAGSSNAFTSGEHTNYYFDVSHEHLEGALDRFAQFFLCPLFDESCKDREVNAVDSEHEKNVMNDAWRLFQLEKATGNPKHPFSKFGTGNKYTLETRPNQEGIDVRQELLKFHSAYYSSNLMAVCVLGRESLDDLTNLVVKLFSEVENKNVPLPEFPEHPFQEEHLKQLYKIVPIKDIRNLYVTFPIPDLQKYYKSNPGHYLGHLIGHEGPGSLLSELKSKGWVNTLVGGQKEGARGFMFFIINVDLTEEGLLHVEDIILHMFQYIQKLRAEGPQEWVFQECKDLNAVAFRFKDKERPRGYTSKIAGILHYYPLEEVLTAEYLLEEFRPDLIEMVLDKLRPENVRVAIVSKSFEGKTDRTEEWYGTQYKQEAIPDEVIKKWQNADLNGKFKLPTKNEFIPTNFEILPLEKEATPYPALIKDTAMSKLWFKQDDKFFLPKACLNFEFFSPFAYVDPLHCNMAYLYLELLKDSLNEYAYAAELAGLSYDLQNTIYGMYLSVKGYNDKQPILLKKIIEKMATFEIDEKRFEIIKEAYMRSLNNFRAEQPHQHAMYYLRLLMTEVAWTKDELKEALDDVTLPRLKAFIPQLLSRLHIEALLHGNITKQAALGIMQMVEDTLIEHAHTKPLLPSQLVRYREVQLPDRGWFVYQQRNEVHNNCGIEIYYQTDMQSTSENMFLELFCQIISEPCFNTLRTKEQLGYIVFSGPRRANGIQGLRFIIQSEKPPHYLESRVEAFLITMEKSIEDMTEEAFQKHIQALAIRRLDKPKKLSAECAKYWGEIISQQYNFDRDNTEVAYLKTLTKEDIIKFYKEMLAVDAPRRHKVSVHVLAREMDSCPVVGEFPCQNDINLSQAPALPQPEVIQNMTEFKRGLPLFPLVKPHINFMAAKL

Insulin-degrading enzyme [32] = biological target: T2, Insulin-degrading enzyme; experiment: activators of recombinant IDE enzyme, dose response, counter-screen for IDE activator project, biochemical, fluorescence polarization (AID 588681)
[33] = biological target: Glutathione-S-transferase (Schistosoma japonicum, UniProt Q26513); experiment: biotin-GST/anti-GST TR-FRET signal inhibitors, dose response, artefact control for Vif-APOBEC3G degradation inhibitor project, biochemical (AID 1117362); format: functional
Nonstructural protein 1 = Nonstructural protein 1 (Influenza A virus, UniProt Q194T2); format: functional, Influenza A virus (A/California/07/2009(H1N1))
Chain of Nonstructural protein 1 (Q194T2 whole entry): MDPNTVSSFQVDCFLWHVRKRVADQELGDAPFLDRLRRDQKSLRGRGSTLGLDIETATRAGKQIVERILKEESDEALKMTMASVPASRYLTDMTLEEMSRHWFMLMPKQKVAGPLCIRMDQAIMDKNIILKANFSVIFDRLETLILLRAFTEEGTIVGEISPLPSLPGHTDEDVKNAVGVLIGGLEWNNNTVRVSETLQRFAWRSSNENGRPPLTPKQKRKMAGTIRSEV

Chain of Ras and Rab interactor 1/Tyrosine-protein kinase ABL1 (P00519 whole entry): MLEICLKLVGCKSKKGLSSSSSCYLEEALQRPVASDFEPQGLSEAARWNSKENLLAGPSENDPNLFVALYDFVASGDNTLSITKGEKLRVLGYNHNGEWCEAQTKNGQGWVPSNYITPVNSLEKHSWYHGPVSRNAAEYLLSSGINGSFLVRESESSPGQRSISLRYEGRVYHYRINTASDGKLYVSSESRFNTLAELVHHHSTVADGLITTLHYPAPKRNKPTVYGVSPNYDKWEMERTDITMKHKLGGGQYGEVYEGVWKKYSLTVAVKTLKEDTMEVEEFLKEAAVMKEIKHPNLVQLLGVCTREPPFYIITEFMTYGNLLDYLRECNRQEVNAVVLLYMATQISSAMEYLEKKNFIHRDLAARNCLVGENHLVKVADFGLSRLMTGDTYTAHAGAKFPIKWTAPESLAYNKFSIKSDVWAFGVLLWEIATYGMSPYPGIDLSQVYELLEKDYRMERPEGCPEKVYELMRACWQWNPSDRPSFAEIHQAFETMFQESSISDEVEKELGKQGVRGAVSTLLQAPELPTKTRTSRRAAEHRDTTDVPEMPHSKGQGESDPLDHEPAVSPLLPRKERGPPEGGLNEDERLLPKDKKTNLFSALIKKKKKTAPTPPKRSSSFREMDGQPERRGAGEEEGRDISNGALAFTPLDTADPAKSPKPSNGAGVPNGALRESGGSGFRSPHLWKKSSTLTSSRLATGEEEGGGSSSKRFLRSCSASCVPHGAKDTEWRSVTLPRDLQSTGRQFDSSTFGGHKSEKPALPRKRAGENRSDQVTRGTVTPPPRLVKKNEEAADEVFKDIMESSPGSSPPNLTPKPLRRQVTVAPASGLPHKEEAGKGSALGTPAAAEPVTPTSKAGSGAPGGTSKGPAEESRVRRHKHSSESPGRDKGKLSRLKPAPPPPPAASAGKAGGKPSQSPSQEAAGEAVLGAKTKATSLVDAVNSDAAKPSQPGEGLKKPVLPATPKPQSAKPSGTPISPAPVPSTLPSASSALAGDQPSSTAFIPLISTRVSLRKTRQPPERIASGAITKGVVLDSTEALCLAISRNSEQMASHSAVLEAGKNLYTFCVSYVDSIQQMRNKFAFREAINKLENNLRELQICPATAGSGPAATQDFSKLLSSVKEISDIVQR
Chain of Ras and Rab interactor 1/Tyrosine-protein kinase ABL1 (Q13671 whole entry): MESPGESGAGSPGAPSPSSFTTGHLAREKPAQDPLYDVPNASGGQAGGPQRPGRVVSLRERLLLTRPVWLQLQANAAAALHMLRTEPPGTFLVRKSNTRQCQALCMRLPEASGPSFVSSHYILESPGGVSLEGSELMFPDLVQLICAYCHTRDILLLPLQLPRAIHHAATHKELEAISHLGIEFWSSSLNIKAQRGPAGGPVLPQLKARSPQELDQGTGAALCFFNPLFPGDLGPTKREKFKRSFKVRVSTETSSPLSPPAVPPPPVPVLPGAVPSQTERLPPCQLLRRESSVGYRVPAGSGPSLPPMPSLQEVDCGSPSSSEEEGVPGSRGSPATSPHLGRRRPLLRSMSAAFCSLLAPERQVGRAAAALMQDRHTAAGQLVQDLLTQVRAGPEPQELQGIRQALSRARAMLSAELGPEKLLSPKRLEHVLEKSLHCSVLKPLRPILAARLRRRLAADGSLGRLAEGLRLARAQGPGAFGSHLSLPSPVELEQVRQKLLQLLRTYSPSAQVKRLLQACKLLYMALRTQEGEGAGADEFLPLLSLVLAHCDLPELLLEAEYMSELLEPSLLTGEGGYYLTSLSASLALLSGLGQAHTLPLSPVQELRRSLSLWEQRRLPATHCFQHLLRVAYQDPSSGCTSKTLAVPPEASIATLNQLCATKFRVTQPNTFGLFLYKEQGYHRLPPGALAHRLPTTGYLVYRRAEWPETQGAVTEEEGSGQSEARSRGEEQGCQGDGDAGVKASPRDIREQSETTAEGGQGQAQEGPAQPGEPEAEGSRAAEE
Chain of Glutathione-S-transferase (Q26513 whole entry): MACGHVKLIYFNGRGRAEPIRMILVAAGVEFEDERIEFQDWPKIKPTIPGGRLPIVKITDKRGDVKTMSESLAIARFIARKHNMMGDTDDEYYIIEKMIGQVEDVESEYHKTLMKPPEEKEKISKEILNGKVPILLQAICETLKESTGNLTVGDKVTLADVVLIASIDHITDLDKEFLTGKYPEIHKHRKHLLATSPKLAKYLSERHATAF
Chain of Paired box protein Pax-8 (Q06710 whole entry): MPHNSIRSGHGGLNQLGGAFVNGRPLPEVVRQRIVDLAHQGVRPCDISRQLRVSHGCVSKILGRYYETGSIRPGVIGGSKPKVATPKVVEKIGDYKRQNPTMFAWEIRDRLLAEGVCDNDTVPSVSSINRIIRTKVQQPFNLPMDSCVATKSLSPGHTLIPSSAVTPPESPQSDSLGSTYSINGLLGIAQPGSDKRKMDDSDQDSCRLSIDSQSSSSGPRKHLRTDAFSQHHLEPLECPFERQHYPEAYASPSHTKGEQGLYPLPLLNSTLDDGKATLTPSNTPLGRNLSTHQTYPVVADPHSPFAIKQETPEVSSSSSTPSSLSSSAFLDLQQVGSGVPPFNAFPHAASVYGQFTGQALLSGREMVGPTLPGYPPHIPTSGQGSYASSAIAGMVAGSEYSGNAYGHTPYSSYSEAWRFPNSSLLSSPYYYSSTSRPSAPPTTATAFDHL
Chain of Voltage-gated inwardly rectifying potassium channel KCNH2 (Q12809 whole entry, the tested form may be a part): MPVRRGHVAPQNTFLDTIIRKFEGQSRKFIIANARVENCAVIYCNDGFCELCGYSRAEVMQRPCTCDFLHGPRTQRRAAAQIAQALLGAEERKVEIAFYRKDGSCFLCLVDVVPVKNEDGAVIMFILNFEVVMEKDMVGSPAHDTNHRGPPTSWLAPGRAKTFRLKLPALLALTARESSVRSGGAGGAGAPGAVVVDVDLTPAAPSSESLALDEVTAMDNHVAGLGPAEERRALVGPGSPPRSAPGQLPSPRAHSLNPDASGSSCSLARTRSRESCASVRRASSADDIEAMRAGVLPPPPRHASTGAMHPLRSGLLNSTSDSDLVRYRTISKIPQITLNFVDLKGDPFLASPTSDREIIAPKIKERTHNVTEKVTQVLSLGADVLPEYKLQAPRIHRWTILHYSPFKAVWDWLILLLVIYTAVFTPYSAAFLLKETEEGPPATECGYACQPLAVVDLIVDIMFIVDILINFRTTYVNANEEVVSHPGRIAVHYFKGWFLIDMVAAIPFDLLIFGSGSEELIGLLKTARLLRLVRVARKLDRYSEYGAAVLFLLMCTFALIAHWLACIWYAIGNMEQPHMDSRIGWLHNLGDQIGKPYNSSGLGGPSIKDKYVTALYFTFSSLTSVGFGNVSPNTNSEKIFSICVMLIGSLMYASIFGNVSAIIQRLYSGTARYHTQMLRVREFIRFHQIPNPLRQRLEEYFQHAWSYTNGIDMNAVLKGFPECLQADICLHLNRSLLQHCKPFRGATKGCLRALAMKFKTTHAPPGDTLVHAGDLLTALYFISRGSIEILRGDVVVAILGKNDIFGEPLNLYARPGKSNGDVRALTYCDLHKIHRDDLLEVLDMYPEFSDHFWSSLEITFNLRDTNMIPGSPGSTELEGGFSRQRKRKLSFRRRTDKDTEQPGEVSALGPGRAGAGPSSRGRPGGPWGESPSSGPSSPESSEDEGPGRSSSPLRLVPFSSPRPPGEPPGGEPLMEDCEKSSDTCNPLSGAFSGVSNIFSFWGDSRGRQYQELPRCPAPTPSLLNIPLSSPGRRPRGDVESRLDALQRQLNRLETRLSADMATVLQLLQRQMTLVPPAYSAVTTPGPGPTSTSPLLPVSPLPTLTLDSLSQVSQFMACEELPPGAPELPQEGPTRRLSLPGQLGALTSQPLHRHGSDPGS

For CCOc1ccc2nc(/N=C/c3nc(-c4ccccc4)oc3O)sc2c1, the IC50 [1] was > 100 µM (active), the IC50 (cells) was 3.76 µM (active) and the EC50 [2] was 14.6 µM (active). The EC50 [3] was 1.69 µM (active).
For Cc1noc(C)c1S(=O)(=O)Nc1cccc2c1O[C@H](CN(C)Cc1ccc(C(F)(F)F)cc1)[C@H](C)CN([C@H](C)CO)C2=O, the AC50 [4] was 2.42 µM (active), the AC50 [5] was 0.935 µM (active) and the AC50 [6] was 0.731 µM (active).
For O=C(C[C@@H]1C[C@H]2c3cc(NS(=O)(=O)c4ccc(F)cc4)ccc3O[C@H]2[C@H](CO)O1)NCc1ccc(Cl)cc1, the AC50 [7] was 45.7 µM (active), the AC50 [8] was 19.8 µM (active) and the AC50 [9] was 19.1 µM (active). The AC50 (Paired box protein Pax-8) was 5.93 µM (active), the AC50 [10] was 25.8 µM (active) and the AC50 [11] was 0.000676 µM (active). For the same compound, the AC50 [12] was 43 µM (active), the AC50 [13] was 16.1 µM (active) and the AC50 [14] was 28.1 µM (active). The AC50 [15] was 34.3 µM (active).
In the case of FC(F)(F)c1ccccc1CSc1nnc(-c2ccccc2)o1, the AC50 [16] is reported as 23.1 µM (active).
With CC(C)(CO)[C@@H](O)C(=O)NCCC(=O)NCCSSCCNC(=O)CCNC(=O)[C@H](O)C(C)(C)CO the IC50 [17] was > 20 µM (inactive), the IC50 [18] was > 20 µM (inactive) and the IC50 [19] was > 20 µM (inactive). The IC50 [20] was > 20 µM (inactive), the IC50 [21] was > 20 µM (inactive) and the IC50 [22] was > 20 µM (inactive). For the same compound, the IC50 [23] was > 20 µM (inactive) and the IC50 [24] was > 20 µM (inactive).
With CC(C)N1C[C@@H](C)[C@H](CN(C)Cc2ccc(Oc3ccccc3)cc2)Oc2c(cccc2N(C)C(=O)c2ccncc2)C1=O the AC50 [25] was 0.262 µM (active), the AC50 [26] was 0.262 µM (active) and the IC50 [27] was 10 µM (inconclusive).
In the case of O=C(O)CCCC[C@@H]1SC[C@@H]2NC(=O)N[C@@H]21 [BIOTIN], the EC50 (HEK293 [28]) is reported as 2.06 µM (active), the IC50 [29] is reported as > 3.73 nM (active) and 529 nM (active) and the IC50 (HEK293 [30]) is reported as > 89.3 µM (inactive). The EC50 (Insulin-degrading enzyme [31]) was 2.37 µM (active), the EC50 (Insulin-degrading enzyme [32]) was 2.53 µM (active) and the IC50 [33] was 0.85 µM (active). The IC50 (Nonstructural protein 1) was < 0.2 µM (active).
